How the values were obtained:
[1] = tested on: Fluc mRNA; assay: In vivo delivery of luciferase mRNA (Fluc mRNA) by lipid nanoparticles, living imaging; parameters: species or system BALB/c mice; details: after 12 hours, total fluorescence
Procedure: (§1) The amino lipid compounds of the present disclosure were mixed with DOPE, cholesterol, and PEG2000-DMG in a molar ratio of 45:10:42.5:2.5 and dissolved in absolute ethanol. By using a microinjection pump, the resultant ethanol solution and a sodium acetate solution (50 mM, pH=4.0) were mixed in a ratio of 1:3 in a microfluidic chip to prepare a crude solution of lipid nanoparticles, which were then dialyzed in 1×PBS at a controlled temperature of 4° C. for 6 h using a dialysis box (Fisher, MWCO 20,000), and filtered through a 0.22 μm microporous filter membrane before use.
(§2) The formulation method was the same as the formulation method 1, except that the molar ratio of the amino lipid compounds to DSPC, cholesterol and PEG2000-DMG was 50:10:38.5:1.5.
The lipid nanoparticles prepared according to the above formulation method 1 or 2 were used in the biological experiments below for evaluating the performances of in vivo delivery of luciferase mRNA (Fluc mRNA). For the lipid nanoparticles obtained in the formulation method 1, the mass ratio of the amino lipid compounds to the luciferase mRNA was about 10:1, and the lipid nanoparticles were administered subcutaneously; and the lipid nanoparticles obtained in the formulation method 2 were administered by tail vein and intramuscular injection.
6-week-old female BALB/c mice weighed about 20 g were selected and fed in a SPF-grade feeding room. Animal tests were conducted strictly according to the guidelines of National Health institutions and the requirements of animal ethics.
(§3) 9 mice were assigned randomly to each group and injected with the lipid nanoparticles at a dosage of 0.5 mg/kg by three administration routes, i.e., subcutaneous, intramuscular and tail vein injection (three mice for each administration route). After 12 hours, D-luciferin potassium salt (200 μL, 10 mg/mL) was injected into each mouse through the tail vein. After 10 minutes, the total fluorescence intensity of each mouse was observed on a living imaging system (IVIS-200, Xenogen) and taken photographs for record. The expression intensities of Fluc mRNA delivered by representative amino lipid compounds through the three administration routes are shown in Table 2-4. MC3 was used as a control and SM102 was used as a comparative compound.

[2] = tested on: influenza mRNA vaccine; assay: In vivo delivery of influenza mRNA vaccine and immunity, IgG ELISA; parameters: species or system BALB/c mice; details: influenza mRNA LNP, injected subcutaneously 0.5 mg/kg Day 0 and Day 7, serum Day 21, FIG. 2
[3] = tested on: OVA protein; assay: In vivo delivery of ovalbumin mRNA and immunity, IgG ELISA; parameters: species or system BALB/c mice; details: OVA mRNA LNP, injected intramuscularly 0.5 mg/kg Day 0 and Day 7, serum Day 21, FIG. 1
Procedure: as §1, with “compounds of formula (I)” for “compounds”, “of 50:10:38.5:1.5” for “of 45:10:42.5:2.5”, “ethanol. Ovalbumin mRNA (OVA mRNA) was dissolved in a sodium acetate solution (50 mM, pH=4.0).” for “ethanol.”, “and the” for “and a”
The mass ratio of the amino lipid compounds to the ovalbumin mRNA (OVA mRNA) in the obtained lipid nanoparticles was about 10:1.
6-week-old female BALB/c mice weighed about 20 g were selected and fed in a SPF-grade feeding room. Animal tests were conducted strictly according to the guidelines of National Health institutions and the requirements of animal ethics. […]
A flat-bottomed 96-well plate (Nunc) was pre-coated with OVA protein at a concentration of 0.5 μg protein per well in a 50 mM carbonate buffer (pH 9.6) at 4° C., and allowed to stay overnight, and then blocked with 5% glycine. […] After addition of the HRP substrate, the absorbance at 450 nm was measured on an ELISA plate reader (Bio-Rad).

[4] = tested on: liver; assay: Targeting assay, fluorescence in liver after intramuscular injection; assay type: in vivo, mice; details: 15 μg mRNA per animal, 6 h after injection, dissected liver
Procedure: The lipids were mixed with DSPC, CHO-HP, M-DMG2000 (i.e. PEG2000-DMG) in a molar ratio of 50:10:38.5:1.5 and dissolved in absolute ethanol. mRNA was dissolved in a sodium acetate solution (0.2M, pH=5.0). The samples of various prescriptions were prepared at a water phase:alcohol phase=9 ml/min: 3 ml/min by using a microfluidic equipment (MPE-L2) and a chip (SN.000035). The two phases were mixed by injecting them into the microfluidic chip according to the interface requirements, and then the drug solution was loaded into a 100KD dialysis bags, immersed in a beaker containing 1 L dialysis solution and wrapped with aluminum foil, and dialyzed at 100 rpm for 1 h at room temperature, and then the dialysis solution was replaced and the dialysis continued for 1 h.
Formulation of dialysis solution: 1×PBS+8% sucrose solution: 2 packets of 1×PBS powder were taken into a beaker, dissolved with 2 L DEPC water, added with 160 g of sucrose additionally, and mixed to obtain the 1×PBS+8% sucrose solution.
The mass ratio of mRNA:Lipids in the obtained lipid nanoparticles were about 1:10.
Fluorescent protein-encoding mRNA-LNP preparations containing Compound (I-6-II), MC3 or SM102, respectively were prepared by using the formulation method of mRNA lipid nanoparticle (LNP) preparations as described above, selecting a fluorescent protein-encoding mRNA as the mRNA and the compound (I-6-II), MC3 or SM102, respectively as the lipid.
Each preparation to be tested was administered to mice by intramuscular injection, with each animal receiving 15 μg mRNA preparation sample. 6 h after sample injection, the mice were anesthetized by isoflurane inhalation, and injected intraperitoneally with 200 μL of D-Luciferin (concentration 10 mg/ml) luciferase development substrate. […] After development of living imaging of the intramuscularly injected animals, they were immediately dissected, followed by observation of the fluorescence in the liver immediately after the dissection.

[5] = Stability of lipid nanoparticles at 25° C., DLS particle size and PDI; assay type: physicochemical
Procedure: as §1
(§4) Preparation of Lipid Nanoparticles: The Formulation Method 1 was Used to Prepare LNPs for Subcutaneous Administration.
Characterization of lipid nanoparticles: The particle size and PDI of the prepared lipid nanoparticles were measured by Nano-ZSZEN 3600 (Malvern). 40 μL of the LNP solution was taken for particle size measurement with circulation for three times, 30 seconds for each circulation.
(§5) The particle size measurements were carried out on the day of preparation (week 0), and after one week (week 1), two weeks (week 2), and four weeks (week 4) of storage at 25° C., and the expression intensities of Fluc mRNA delivered by subcutaneous administration were determined on the day of preparation (week 0) and after four weeks (week 4).

[6] = tested on: Fluc mRNA; assay: Stability of lipid nanoparticles at 25° C., subcutaneous expression of Fluc mRNA; assay type: in vivo, mice
Procedure: as §1, §3, §4, §5

[7] = tested on: Fluc mRNA; assay: Activity of lipid nanoparticles of formulation method 2, Fluc mRNA by intramuscular administration; assay type: in vivo, BALB/c mice
Procedure: as §2, §3
Preparation of Lipid Nanoparticles: LNPs were Prepared Using the Formulation Method 2 for Intramuscular Administration.
The measurement method was the same as that of Test Example 1.

[8] = subcutaneous administration, formulation method 1, 0.5 mg/kg
[9] = intramuscular injection, formulation method 2, 0.5 mg/kg
[10] = tail vein administration, formulation method 2, 0.5 mg/kg

SMILES	Fluorescence intensity (expression intensity of Fluc mRNA) [1, 8]	IgG antibody titers [2]	Fluorescence intensity (expression intensity of Fluc mRNA) [1, 9] [E + 07]	Fluorescence intensity (expression intensity of Fluc mRNA) [1, 10]	IgG antibody titers [3]	fluorescence intensity in liver [4]	particle size change after four weeks of storage ([5]; 25° C., week 4 versus week 0)	particle size ([5]; preparation day (week 0))	Z-Average ([5]; week 0 (day of preparation)) [nm·days]	PDI ([5]; week 1, storage at 25° C.)	Z-Average ([5]; week 1, storage at 25° C.) [nm·days]	PDI ([5]; week 2, storage at 25° C.)	Z-Average ([5]; week 2, storage at 25° C.) [nm·days]	Z-Average ([5]; week 4, storage at 25° C.) [nm·days]	Fluc expression change after four weeks ([6]; 25° C., week 4 versus week 0)	Fluc Expression intensities ([6]; week 0, subcutaneous administration)	Fluc Expression intensities ([6]; week 4, storage at 25° C., subcutaneous administration)	Fluorescence intensity (expression intensity of Fluc mRNA) [7] [E + 07]
CCCCCCCC/C=C\CCCCCCCC(=O)OCCCCCCCCN(CCCCCCOC(=O)C(CCCCCC)CCCCCCCC)C1CCCC(O)C1 (stereo not drawn) [Compound 10]	1.1E + 07	comparable to those of SM102																
CCCCCCCCCCCOC(=O)CCCCCN(CCCCCCCC(=O)OC(CCCCCCCC)CCCCCCCC)C1CC(O)C1 (stereo not drawn) [Compound 2]	1.9E + 08		1.3	2.9E + 06	comparable to those of MC3 and SM102													
CCCCC/C=C\C/C=C\CCCCCCCCC(CCCCCCCC/C=C\C/C=C\CCCCC)OC(=O)CCCN(C)C [MC3, reference compound]	3.7E + 06	lowest IgG antibody titers	2.7	2.7E + 07		1.23E+05												
CCCCCCCCCCCOC(=O)CCCCCN(CCCCCCCC(=O)OC(CCCCCCCC)CCCCCCCC)C1CCCC(O)C1 (stereo not drawn) [Compound 7]	2.9E + 08		3.7	2.9E + 07	stronger immune response		did not increase significantly	about 100 nm	95	0.05	105	0.06	115	120	did not decrease significantly	2.9E+08	2.6E+08	3.7

From patent publication US20260015311A1, “AMINO LIPID COMPOUND, PREPARATION METHOD THEREFOR, AND USE THEREOF” (SHENZHEN SHENXIN BIOTECHNOLOGY CO., LTD., priority 2022, published 2026)
